The target in one assay is T1, thrombin (Homo sapiens, UniProt P00734).
T1 construct: purchased Sigma Aldrich
Kind of assay: Thrombin inhibition assay. Type of assay: biochemical. On the procedure:
(§1) The enzyme inhibitory activity of fractions and AER525 was tested against trypsin [55], chymotrypsin [56], thrombin [56], elastase, and carboxypeptidase A [56]. For full details on trypsin, chymotrypsin, thrombin, and elastase inhibition assay refer to the work of Overlingė et al.. In the carboxypeptidase A assay, the final concentration of the enzyme was 1.6 µM, N-(4-methoxy-phenyl-azoformyl)-Phe-OH (GLPBIO Technology LLC; Montclair, CA, USA) at a concentration of 0.2 mg mL^−1 served as a substrate, and the carboxypeptidase inhibitor from potato tuber was used at a concentration range of 2.5–150 µg mL^−1. Mixtures containing the sample (10 µL) or inhibitor (10 µL) were preincubated with the enzyme (10 µL) and buffer (160 µL; 50 mM Tris-HCl at pH 7.5) at 25 °C. After 10 min, the substrate (20 µL) was added, and the reaction mixture was incubated for another 10 min at 25 °C. The absorbance of the solutions was measured at 350 nm with the application of a microplate reader (Varioskan Flash, Thermo Fisher Scientific OY, Vantaa, Finland). All enzymes were from Sigma Aldrich (St. Louis, MO, USA); 1% v/v DMSO was used to dissolve fractions at final concentrations of 45 µg mL^−1, while for pure AER525, it was additionally serially diluted to 45, 4.5, 0.45, and 0.045 µg mL^−1. […]

In another assay the target is T2, chymotrypsin (Bos taurus, UniProt P00766).
T2 construct: purchased Sigma Aldrich
The assay can be described thus: Chymotrypsin inhibition assay. Type of assay: biochemical. Particulars: highest concentration 45 µg mL^−1. On the procedure:
as §1

The next assay concerns elastase. The assay can be described thus: Elastase inhibition assay. The class given is biochemical. Particulars: highest concentration 45 µg mL^−1. Here is the method: as §1
The test system of assay [1] is human cytosolic enzyme which is involved both in tumor progression and phytochemical bioavailability. Particulars: ref [12]; cited from earlier work. The text has this:
(§2) In addition to the nutritional properties of Aphanizomenon, assessed mainly based on the analyses of extracts, there are several studies showing that the cyanobacterium produces metabolites of significant biological activities.

For assay [2] the following is noted: ref [10],[11]; cited from earlier work.
Source text: as §2

Entries after “also recorded” stand apart in the source; their conditions may differ.

`CC(C)C[C@@H](NC(=O)[C@@H](N)CO)C(=O)N1[C@H](C(=O)N[C@H](C=O)CCCNC(=N)N)C[C@@H]2CC[C@@H](O)C[C@@H]21` [AER525]: on thrombin, the “activity against thrombin (in words)” value is recorded as “potent activity; also recorded: strong thrombin-inhibitory activity” and the “potency of thrombin inhibition, AER525 compared with dysinosin D (in words)” value is listed as “comparable potency”. The “activity against chymotrypsin (in words)” value on chymotrypsin is given as “no effect”. Also, in the assay with elastase, the “activity against elastase (in words)” value is listed as “no effect; also recorded: No activity”. Further, the “Elastase enzyme inhibition (IC50)” value in the assay on elastase (triplicates) is given as “- (not active (inhibition below 10%))”.

With `NCCc1ccccc1` [β-phenylethylamine], the “inhibition of the human cytosolic enzyme (in words)” value in assay [1] is “acted as inhibitors”. Moreover, the “alleviating depression and anxiety symptoms (in words)” value in assay [2] is “showed effectiveness in alleviating depression and anxiety symptoms”.

Regarding phycocyanobilin, in assay [1], the “inhibition of the human cytosolic enzyme (in words)” value is on record as “acted as inhibitors”. Also, the “alleviating depression and anxiety symptoms (in words)” value in assay [2] was “showed effectiveness in alleviating depression and anxiety symptoms”.

Values taken from article PMC11595689, “Aeruginosin 525 (AER525) from Cyanobacterium Aphanizomenon Sp. (KUCC C2): A New Serine Proteases Inhibitor” (Marine Drugs, 2024).
